What was measured:
HEK293 = assay: cells; assay type: functional; details: Homo sapiens, ATCC CRL1573, HEK293; ASSAY_TEST Inhibition of Cell Viability; detection method Resazurin; Fluorescence (ex560/em590); MEDIA DMEM with 10% FBS; plate type 384well; TC; CORNING #3712; time 18 hr
Staphylococcus aureus = assay: microbe, parasite or virus in culture; details: ATCC 43300, 18 h, ASSAY_TEST Inhibition of Bacterial Growth, detection method Absorption (OD600), MEDIA CAMHB, plate type 384well, NBS, CORNING #3640
Description: Antibacterial activity against Staphylococcus aureus MRSA ATCC 43300 (CO-ADD:GP_020); MIC in CAMBH media, using NBS plates, by OD(600)

Escherichia coli = assay: microbe, parasite or virus in culture; details: ATCC 25922, 18 h, ASSAY_TEST Inhibition of Bacterial Growth, detection method Absorption (OD600), MEDIA CAMHB, plate type 384well, NBS, CORNING #3640
Description: Antibacterial activity against Escherichia coli ATCC 25922 (CO-ADD:GN_001); MIC in CAMBH media using NBS plates, by OD(600)

Klebsiella pneumoniae = assay: microbe, parasite or virus in culture; details: ATCC 700603, 18 h, ASSAY_TEST Inhibition of Bacterial Growth, detection method Absorption (OD600), MEDIA CAMHB, plate type 384well, NBS, CORNING #3640
Description: Antibacterial activity against Klebsiella pneumoniae MDR ATCC 70063 (CO-ADD:GN_003); MIC in CAMBH media using NBS plates, by OD(600)

Pseudomonas aeruginosa = assay: microbe, parasite or virus in culture; details: ATCC 27853, 18 h, ASSAY_TEST Inhibition of Bacterial Growth, detection method Absorption (OD600), MEDIA CAMHB, plate type 384well, NBS, CORNING #3640
Description: Antibacterial activity against Pseudomonas aeruginosa ATCC 27853 (CO-ADD:GN_042); MIC in CAMBH media using NBS plates, by OD(600)

Acinetobacter baumannii = assay: microbe, parasite or virus in culture; details: ATCC 19606, 18 h, ASSAY_TEST Inhibition of Bacterial Growth, detection method Absorption (OD600), MEDIA CAMHB, plate type 384well, NBS, CORNING #3640
Description: Antibacterial activity against Acinetobacter baumannii ATCC 19606 (CO-ADD:GN_034); MIC in CAMBH media using NBS plates, by OD600

Candida albicans = assay: microbe, parasite or virus in culture; details: ATCC 90028, ASSAY_TEST Inhibition of Fungal Growth, detection method Absorption (OD530), plate type 384well, NBS, CORNING #3640
Description: Antifungal activity against Candida albicans ATCC 90028 (CO-ADD:FG_001); MIC in YNB media using NBS plates, by OD630

Description for Cryptococcus neoformans: Antifungal activity against Cryptococcus neoformans H99 ATCC 208821 (CO-ADD:FG_002); MIC in YNB media using NBS plates, by Resazurin OD(600-570)

| MIC (Cryptococcus neoformans) | MIC (Staphylococcus aureus) | MIC (Escherichia coli) | MIC (Klebsiella pneumoniae) | MIC (Pseudomonas aeruginosa) | MIC (Acinetobacter baumannii) | MIC (Candida albicans) | SMILES | CC50 (HEK293) |
| --- | --- | --- | --- | --- | --- | --- | --- | --- |
| > 32 mg/L | ≤ 0.25 mg/L | ≤ 0.25 mg/L | ≤ 0.25 mg/L | ≤ 0.25 mg/L | 0.5 mg/L | > 32 mg/L | CC1COc2c(N3CCN(C)CC3)c(F)cc3c(=O)c(C(=O)Nc4ccc(-c5n[nH]c(=S)o5)cc4)cn1c23.Cl (configuration not stated) | > 32 mg/L |
| > 32 mg/L | 32 mg/L | 4 mg/L | 32 mg/L | 32 mg/L | 32 mg/L | > 32 mg/L | Cl.O=C(Nc1ccc(-c2n[nH]c(=S)o2)cc1)c1cn(C2CC2)c2cc(N3CCNCC3)c(F)cc2c1=O | 17.8 mg/L |
| > 32 mg/L | > 32 mg/L | > 32 mg/L | > 32 mg/L | > 32 mg/L | > 32 mg/L | > 32 mg/L | CC(O)C1C(=O)N2C(C(=O)Nc3ccc(-c4n[nH]c(=S)o4)cc3)=C(SC3CNC(C(=O)N(C)C)C3)C(C)C12.Cl (configuration not stated) | > 32 mg/L |
| > 32 mg/L | ≤ 0.25 mg/L | ≤ 0.25 mg/L | ≤ 0.25 mg/L | 4 mg/L | ≤ 0.25 mg/L | > 32 mg/L | COc1c(N2CC3CCCNC3C2)c(F)cc2c(=O)c(C(=O)Nc3ccc(-c4n[nH]c(=S)o4)cc3)cn(C3CC3)c12.Cl (configuration not stated) | 6.76 mg/L |

From ChEMBL document CHEMBL4513138, “CO-ADD screening of University of Mosul (Iraq) compounds”
